Measured values reported in patent US4831033A (City of Hope, priority 1988, dated 1989).

How the values were obtained:
Acetylcholinesterase = target: T1, Acetylcholinesterase (Electrophorus electricus, UniProt O42275); experiment: Acetylcholinesterase activity, acetylthiocholine substrate, colorimetric (Ellman); type: biochemical, electric eel; settings: for Acetylcholinesterase Activity Relative Potency: relative to amodiaquin
T1 construct: prepared from the electric organ of the electric eel; from tissue; host or cells: electric organ of the electric eel
Method: Cholinesterase activity reported in Table I was measured by a standard procedure. The enzyme employed was prepared from the electric organ of the electric eel. It is known to have the same properties as the enzyme of mammalian nervous tissue. Acetylthiocholine was used as substrate.
Inhibitory potency of substances was determined by measuring enzyme activity in the absence and presence of varying concentrations of the test substances.

[1] = system: K^+ transport, P3 membrane fractions from whole brains of Swiss mice; experiment: K^+ transport (^86 Rb uptake) in P3 membrane fractions; type: biochemical; settings: for K^+ Transport Relative Potency: relative to amodiaquin; for concentration inhibiting K^+ transport (selection criterion): submillimolar concentrations
Method: To obtain the data set forth in Table I, K^+ -transport was measured using P3 membrane fractions prepared from whole brains of Swiss mice. […] The resulting supernatant was centrifuged at 17,000 g for 15 minutes, and the supernatant from the latter was centrifuged at 70,000 g for 1 hour to pellet the P3 fraction. The P3 pellet was washed by resuspension in 50 mM Tris-citrate (pH 7.3). After 10 minutes on ice, the suspension was centrifuged at 70,000 g for 10 minutes. This washing procedure was repeated twice using distilled water for the resuspension. […] The suspension (2-3 mg protein/ml) was stabilized on ice for 1 hour prior to use. Uptake of ^86 Rb (radioactive) was used to assess the K^+ -transport of the P3 articles. Many published experiments have shown the ^86 Rb, with a half-life 36 times longer than ^42 K, is a suitable tracer for K. Rb permeates neuronal K channels as well as does K itself.
After filtration of the samples, the filters were washed rapidly three times with 10^-3 M triethanolamine containing 0.1M RbCl (non-radioactive) and counted in ACS liquid scintillation cocktail (Amersham). In calculating the results, the uptake found in the presence of 0.1M non-radioactive RbCl was subtracted from that found in the presence of various concentrations of the test substances in the presence of 10^-6 M ^86 RbCl alone. […] Between 0.2 and 0.5 mg/ml usually were employed. The results were normalized by calculating them as percentages of the uptake observed with 10^-6 M ^86 RbCl alone.

T1 sequence (O42275 24-633): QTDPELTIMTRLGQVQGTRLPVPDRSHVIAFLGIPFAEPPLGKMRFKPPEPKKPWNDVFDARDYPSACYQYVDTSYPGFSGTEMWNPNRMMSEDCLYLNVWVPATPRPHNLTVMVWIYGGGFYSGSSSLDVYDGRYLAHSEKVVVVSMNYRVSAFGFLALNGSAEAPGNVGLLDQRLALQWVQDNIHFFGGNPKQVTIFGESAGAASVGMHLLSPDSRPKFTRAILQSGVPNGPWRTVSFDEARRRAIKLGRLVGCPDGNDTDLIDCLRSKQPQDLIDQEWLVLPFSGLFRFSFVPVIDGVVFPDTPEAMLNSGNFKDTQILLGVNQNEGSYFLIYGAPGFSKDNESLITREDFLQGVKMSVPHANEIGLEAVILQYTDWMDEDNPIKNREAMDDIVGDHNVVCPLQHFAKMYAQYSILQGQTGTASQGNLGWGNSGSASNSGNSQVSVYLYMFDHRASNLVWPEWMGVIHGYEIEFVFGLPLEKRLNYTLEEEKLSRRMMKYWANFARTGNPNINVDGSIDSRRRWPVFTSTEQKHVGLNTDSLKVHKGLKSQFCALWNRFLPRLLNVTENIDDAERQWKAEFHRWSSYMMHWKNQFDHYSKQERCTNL

SMILES: CCN(CC)Cc1cc(Nc2ccnc3cc(Cl)ccc23)ccc1O [Amodiaquin, amodiaquin]
- cholinesterase inhibitory potency compared with amodiaquin (in words) (Acetylcholinesterase): most effective cholinesterase inhibitor of this group
- K^+ Transport Rank Order [1]: 1
- K^+ transport inhibition compared with amodiaquin (in words) [1]: ranked first

SMILES: CCN(CC)CCCC(C)Nc1c2ccc(Cl)cc2nc2ccc(OC)cc12 (stereo not shown) [Quinacrine, quinacrine]
- Acetylcholinesterase Activity Rank Order (Acetylcholinesterase): 4(5)
- cholinesterase inhibitory potency compared with amodiaquin (in words) (Acetylcholinesterase): less than one-thousandth
- Acetylcholinesterase Activity Relative Potency (Acetylcholinesterase): 0.001
- K^+ Transport Rank Order [1]: 3
- K^+ transport inhibition compared with amodiaquin (in words) [1]: approximately one-half
- K^+ Transport Relative Potency [1]: 0.44
- concentration inhibiting K^+ transport (selection criterion) [1]: ≤ 10^-3 M

SMILES: CCN(CC)CCCC(C)Nc1ccnc2cc(Cl)ccc12 (stereo not shown) [Chloroquine, chloroquine]
- Acetylcholinesterase Activity Rank Order (Acetylcholinesterase): 5(4)
- cholinesterase inhibitory potency compared with amodiaquin (in words) (Acetylcholinesterase): less than one-thousandth
- Acetylcholinesterase Activity Relative Potency (Acetylcholinesterase): 0.001
- K^+ Transport Rank Order [1]: 4
- K^+ transport inhibition compared with amodiaquin (in words) [1]: approximately one-twentieth as active
- K^+ Transport Relative Potency [1]: 0.067
- concentration inhibiting K^+ transport (selection criterion) [1]: ≤ 10^-3 M

SMILES: Nc1c2ccccc2nc2ccccc12 [9-aminoacridine]
- K^+ Transport Rank Order [1]: 2
- K^+ transport inhibition compared with amodiaquin (in words) [1]: approximately one-half
